Test results from publication PMC8234734, “Pharmacokinetics and Molecular Modeling Indicate nAChRα4-Derived Peptide HAEE Goes through the Blood–Brain Barrier” (Biomolecules, 2021).

Assay: Distribution of HAEE in mouse tissues after i.p. bolus
Format: in vivo
Conditions: mice, i.p. bolus 300 μg/kg
Procedure: In the experiments on mice (Table 1, experimental group 6), a mixture of HAEE and [^3H]HAEE (50 µCi, at a dose of 300 µg/kg) in 200 µL of saline solution was injected intraperitoneally. The animals were decapitated at the end of the period specified by the protocol; blood and studied tissues were collected in weighed plastic tubes, frozen with liquid nitrogen and weighed. When calculating the volumetric concentrations of the total amount of the HAEE peptide (labeled, unlabeled or their mixture) in the blood, the density of the blood was taken equal to 1.056 g/mL [12].
All quantitative values are given as means ± standard deviation.
Within the study, bioavailability of HAEE for several organs and tissues was analyzed with i.p. bolus administration to mice at a dose of 300 μg/kg. The quantity of HAEE in the blood, brain, kidneys, liver, heart and omentum was determined at 2, 4, 6, 10, 15 and 20 min after peptide administration. For all tissues, similar changes in the concentrations of HAEE over time were observed (Figure 3A–C). These were characterized by a bimodal relationship with peaks at 4 and 10–15 min.
Tissue bioavailability of HAEE for the brain was about 3%, which is typical for most pharmacological substances. […] This may indicate accumulation of HAEE in the brain parenchyma due to its active transfer through the BBB and further binding and retention at the affinity sites of neuronal protein targets.

[1] = blood, brain, kidneys, liver, heart, omentum

With “Acetyl-His-Ala-Glu-Glu-Amide [HAEE, synthetic tetrapeptide, analogue of the 35–38 region of the α4 subunit of α4β2 nicotinic acetylcholine receptor]” the “AUC(0–20), blood” value (blood, 0–20 min, n = 6 per time point, [3H]HAEE) was 2110 (ng/g) × min, the “fT × 100%, brain” value (brain) was “about 3%” and the “AUC(0–20), brain” value (brain, 0–20 min, n = 6 per time point) was 70 (ng/g) × min. For the same substance, the “AUC(0–20), heart” value (heart, 0–20 min, n = 6 per time point) was 845 (ng/g) × min, the “AUC(0–20), kidney” value (kidney, 0–20 min, n = 6 per time point) was 3437 (ng/g) × min and the “AUC(0–20), liver” value (liver, 0–20 min, n = 6 per time point) was 777 (ng/g) × min. For the same substance, the “AUC(0–20), omentum” value (omentum, 0–20 min, n = 6 per time point) was 395 (ng/g) × min, the “Time of first peak of HAEE concentration in tissues (bimodal relationship)” value [1] was 4 min and the “Time of second peak of HAEE concentration in tissues (bimodal relationship)” value [1] was 10 to 15 min.
